Source: US20240074968A1, “ORAL PHARMACEUTICAL COMPOSITION AND METHOD FOR PRODUCING PARTICULATE FORMULATION COMPRISING COMPOSITION” (Sunsho Pharmaceutical Co., Ltd., priority 2016, published 2024)

Assay: Solubility in water at 20° C.
Format: physicochemical
Excerpt: The above hydrophobic liquid (B) is a hydrophobic liquid that can dissolve or disperse well the above active ingredient (A) and is not a surfactant. In this case, the “hydrophobicity” of this hydrophobic liquid (B) should disperse as liquid particles containing the active ingredient (A), without dissolving into the water-based composition containing the water-soluble polymer substance (C) and the excipient (D) described below. […] When this “hydrophobicity” is insufficient, it becomes difficult to remain dispersed in the composition while containing the above active ingredient (A), and all or much of the active ingredient (A) becomes contained in the composition as crystals, which makes it impossible to achieve the purpose of the present invention.

SMILES: CC(O)CO (stereo not shown) [propylene glycol]
- solubility in water at 20° C.: exceeding 10 mass %
